Laboratory results from patent US20160361314A1, “COMBINATION OF AN ALK INHIBITOR AND A CDK INHIBITOR FOR THE TREATMENT OF CELL PROLIFERATIVE DISEASES” (NOVARTIS AG, priority 2013, published 2016).
Read-outs that look alike come from different tables or passages of the source.

Tests used:
[1] = system: SKNAS neuroblastoma cells (WT); test: xCELLigence in vitro growth inhibition (IC50); format: cell-based; conditions: Homo sapiens, SK-N-AS, 72 hours, single agent
Protocol: In vitro inhibitory activity was determined in five (5) neuroblastoma cell lines with a 96-well Real-Time Cell Electronic Sensing xCELLigence system (ACEA, San Diego, Calif.) which measures a “cell index”. Cell index is derived from alterations in electrical impedance as cells interact with the biocompatible microelectrode surface in each well to measure substrate adherent proliferation. Depending on the growth kinetics, the following cell densities were plated per well: NB1643: 20,000; SHSY5Y: 6,000; SKBE2C:10,000; NBEBC1: 11,000; NB1691: 30,000. After 24 hours, the plated cells were treated in triplicate with the test compound, each dose as indicated or with DMSO vehicle control. […] At 72 hours after drug exposure, the cell index was recorded.
The IC50 was calculated using GraphPad Prism 5.0 four parameter variable slope fitting.

[2] = system: SH-SY5Y (F1174L) human neuroblastoma cells; test: Cell morphology and cell death by optical microscopy; format: cell-based; conditions: each compound at its IC50, 72 hours after treatment
Text: Synergistic anti-proliferative effect of the combination of our invention was visualized by optical microscopy. […] Seventy-two hours after treatment, the treated samples were compared to the untreated samples (vehicle) by optical microscopy and recorded in micrographs (FIGS. 10A to D).

[3] = system: NB1643 neuroblastoma cells (R1275Q); test: xCELLigence in vitro growth inhibition and Chou-Talalay combination index; conditions: for IC50: Homo sapiens; for Dose Reduction Index (DRI, from calculations) / Drug alone dose giving Fa (calculated) / Dose Reduction Index (DRI) / Drug alone dose giving Fa: NB1643; for Dose Reduction Index (DRI, from calculations) / Drug alone dose giving Fa (calculated): Table 7; for Dose Reduction Index (DRI): A1 and B co-treatment
Protocol: The concentration dependence of the anti-proliferation effect for both combination partners, first alone and then in combination were measured using the xCELLigence system. CI for each of the treatments was computed by CalcuSyn v2 software (Biosoft, MO).
In vitro inhibitory activity was determined in five (5) neuroblastoma cell lines with a 96-well Real-Time Cell Electronic Sensing xCELLigence system (ACEA, San Diego, Calif.) which measures a “cell index”. Cell index is derived from alterations in electrical impedance as cells interact with the biocompatible microelectrode surface in each well to measure substrate adherent proliferation. […] After 24 hours, the plated cells were treated in triplicate with the test compound, each dose as indicated or with DMSO vehicle control. […] At 72 hours after drug exposure, the cell index was recorded.
The IC50 was calculated using GraphPad Prism 5.0 four parameter variable slope fitting. These values were used in dosing of the combination study which follows.
Drug combination effects and quantification of synergy were determined using the Chou-Talalay combination index method (Trends Pharmacol Sci 4, 450-454) and CalcuSyn v2 software (Biosoft, MO) in four neuroblastoma cell lines. Cells were plated and in vitro proliferation was measured using the xCELLigence system as described above.
The anti-proliferation potency of each individual agent was estimated by the median-effect dose, Dm. […] Fa=0 is determined based on DMSO control by the dose, and Fa=1 is a full response (no viable cells left) and. • Fu: fraction unaffected by dose where fu=1−fa.
The effect of combination drug effects was determined utilizing the combination index (CI) as defined by Chou according to the following equation:
where (Dx)1 and (Dx)2 are the concentrations of compounds D1 and D2 needed to produce a given level of anti-proliferative effect when used individually, whereas (D)1 and (O)2 are their concentrations that produce the same anti-proliferative effect when used in combination. The combination index is a quantitative measure of drug interaction defined as an additive effect (CI=1), antagonism (CI>1), or synergy (CI<1). Typically, a CI range, as used herein, is used to assess synergy. A combination index of 0.9-1.1 indicates additive interaction, values below 0.9 indicate synergism, and values over 1.1 indicate antagonism. The follow is a description of the CI ranges: • <0.1+++++ Very strong synergism • 0.1-0.3++++ Strong synergism • 0.3-0.7+++ Synergism • 0.7-0.85++ Moderate synergism • 0.85-0.90+ Slight synergism • 0.90-1.10± Nearly additive • 1.10-1.20− Slight antagonism • 1.20-1.45−− Moderate antagonism
The combination index was used to assess the Dose-Reduction Index (DRI) (Chou and Chou, 1988), where:
CI=(D)1/(Dx)1+(D)2/Dx)2=1/(DRI)1+1/(DRI)2
The DRI estimates how much the dose of each drug can be reduced when synergistic drugs are given in combination, while still achieving the same effect size as each drug administered individually.

[4] = NB-1643, read-out: Dm (median-effect dose)
[5] = Fa 0.51, Table 6, from experimental values
[6] = Fa 0.75, Table 6, from experimental values
[7] = Fa 0.83, Table 6, from experimental values
[8] = Fa 0.9, first of two Fa 0.9 lines, Table 6
[9] = Fa 0.9, second of two Fa 0.9 lines, Table 6

Question: Which IC50 [1] does the source give for `Cc1cc(Nc2ncc(Cl)c(Nc3ccccc3S(=O)(=O)C(C)C)n2)c(OC(C)C)cc1C1CCNCC1` [Compound A1, 5-chloro-N2-(2-isopropoxy-5-methyl-4-(piperidin-4-yl)phenyl)-N4-[2-(propane-2-sulfonyl)-phenyl]-pyrimidine-2,4-diamine] here?
Answer: Its IC50 is 2150 nM.

Question: And the “Intact cells and cell morphology by micrograph” value [2]?
Answer: The value was “significant reduction in the number of intact cells”.

Question: What about the IC50 ([3]; NB-1643, 72 h) of the same compound?
Answer: Its IC50 is 222 nM.

Question: What about the IC50 [3, 4] of the same compound?
Answer: Its IC50 is 173 nM.

Question: And the “Dose Reduction Index (DRI, from calculations)” value ([3]; Fa 0.020)?
Answer: Its value is 3.099.

Question: What about the “Drug alone dose giving Fa (calculated)” value ([3]; Fa 0.020) of the same compound?
Answer: The value was 0.0007501 µM.

Question: What about the “Dose Reduction Index (DRI, from calculations)” value ([3]; Fa 0.050) of the same compound?
Answer: The value was 3.455.

Question: And the “Drug alone dose giving Fa (calculated)” value ([3]; Fa 0.050)?
Answer: The value was 0.0028193 µM.

Question: What about the “Dose Reduction Index (DRI, from calculations)” value ([3]; Fa 0.100) of the same compound?
Answer: Its value is 3.764.

Question: What about the “Drug alone dose giving Fa (calculated)” value ([3]; Fa 0.100) of the same compound?
Answer: Its value is 0.0080106 µM.

Question: What about the “Dose Reduction Index (DRI, from calculations)” value ([3]; Fa 0.150) of the same compound?
Answer: The value was 3.969.

Question: What about the “Drug alone dose giving Fa (calculated)” value ([3]; Fa 0.150) of the same compound?
Answer: The value was 0.015292 µM.

Question: And the “Dose Reduction Index (DRI, from calculations)” value ([3]; Fa 0.200)?
Answer: Its value is 4.130.

Question: What about the “Drug alone dose giving Fa (calculated)” value ([3]; Fa 0.200) of the same compound?
Answer: The value was 0.0248814 µM.

Question: What about the “Dose Reduction Index (DRI, from calculations)” value ([3]; Fa 0.250) of the same compound?
Answer: Its value is 4.269.

Question: What about the “Drug alone dose giving Fa (calculated)” value ([3]; Fa 0.250) of the same compound?
Answer: The value was 0.0371953 µM.

Question: And the “Dose Reduction Index (DRI, from calculations)” value ([3]; Fa 0.300)?
Answer: Its value is 4.394.

Question: What about the “Drug alone dose giving Fa (calculated)” value ([3]; Fa 0.300) of the same compound?
Answer: Its value is 0.0528478 µM.

Question: What about the “Dose Reduction Index (DRI, from calculations)” value ([3]; Fa 0.350) of the same compound?
Answer: Its value is 4.510.

Question: What about the “Drug alone dose giving Fa (calculated)” value ([3]; Fa 0.350) of the same compound?
Answer: The value was 0.0727063 µM.

Question: And the “Dose Reduction Index (DRI, from calculations)” value ([3]; Fa 0.400)?
Answer: The value was 4.622.

Question: What about the “Drug alone dose giving Fa (calculated)” value ([3]; Fa 0.400) of the same compound?
Answer: The value was 0.0979951 µM.

Question: And the “Dose Reduction Index (DRI, from calculations)” value ([3]; Fa 0.450)?
Answer: Its value is 4.732.

Question: And the “Drug alone dose giving Fa (calculated)” value ([3]; Fa 0.450)?
Answer: The value was 0.130469 µM.

Question: And the “Dose Reduction Index (DRI, from calculations)” value ([3]; Fa 0.500)?
Answer: The value was 4.842.

Question: And the “Drug alone dose giving Fa (calculated)” value ([3]; Fa 0.500)?
Answer: Its value is 0.1727061 µM.

Question: What about the “Dose Reduction Index (DRI)” value [3, 5] of the same compound?
Answer: Its value is 3.321.

Question: What about the “Drug alone dose giving Fa” value [3, 5] of the same compound?
Answer: The value was 0.1826374 µM.

Question: What about the “Dose Reduction Index (DRI, from calculations)” value ([3]; Fa 0.550) of the same compound?
Answer: Its value is 4.954.

Question: What about the “Drug alone dose giving Fa (calculated)” value ([3]; Fa 0.550) of the same compound?
Answer: Its value is 0.2286167 µM.

Question: What about the “Dose Reduction Index (DRI, from calculations)” value ([3]; Fa 0.600) of the same compound?
Answer: The value was 5.072.

Question: And the “Drug alone dose giving Fa (calculated)” value ([3]; Fa 0.600)?
Answer: The value was 0.3043766 µM.

Question: And the “Dose Reduction Index (DRI, from calculations)” value ([3]; Fa 0.650)?
Answer: Its value is 5.198.

Question: What about the “Drug alone dose giving Fa (calculated)” value ([3]; Fa 0.650) of the same compound?
Answer: The value was 0.4102451 µM.

Question: What about the “Dose Reduction Index (DRI, from calculations)” value ([3]; Fa 0.700) of the same compound?
Answer: Its value is 5.336.

Question: And the “Drug alone dose giving Fa (calculated)” value ([3]; Fa 0.700)?
Answer: The value was 0.564402 µM.

Question: What about the “Dose Reduction Index (DRI)” value [3, 6] of the same compound?
Answer: The value was 7.224.

Question: And the “Drug alone dose giving Fa” value [3, 6]?
Answer: The value was 0.8019141 µM.

Question: And the “Dose Reduction Index (DRI, from calculations)” value ([3]; Fa 0.750)?
Answer: The value was 5.492.

Question: What about the “Drug alone dose giving Fa (calculated)” value ([3]; Fa 0.750) of the same compound?
Answer: The value was 0.8019141 µM.

Question: What about the “Dose Reduction Index (DRI, from calculations)” value ([3]; Fa 0.800) of the same compound?
Answer: Its value is 5.676.

Question: And the “Drug alone dose giving Fa (calculated)” value ([3]; Fa 0.800)?
Answer: The value was 1.1987842 µM.

Question: What about the “Dose Reduction Index (DRI)” value [3, 7] of the same compound?
Answer: The value was 7.135.

Question: And the “Drug alone dose giving Fa” value [3, 7]?
Answer: The value was 1.5839055 µM.

Question: And the “Dose Reduction Index (DRI, from calculations)” value ([3]; Fa 0.850)?
Answer: Its value is 5.907.

Question: And the “Drug alone dose giving Fa (calculated)” value ([3]; Fa 0.850)?
Answer: The value was 1.9505238 µM.

Question: What about the “Dose Reduction Index (DRI)” value [3, 8] of the same compound?
Answer: Its value is 8.386.

Question: And the “Drug alone dose giving Fa” value [3, 8]?
Answer: Its value is 3.7234705 µM.

Question: And the “Dose Reduction Index (DRI)” value [3, 9]?
Answer: Its value is 4.193.

Question: And the “Drug alone dose giving Fa” value [3, 9]?
Answer: The value was 3.7234705 µM.

Question: And the “Dose Reduction Index (DRI, from calculations)” value ([3]; Fa 0.900)?
Answer: The value was 6.229.

Question: And the “Drug alone dose giving Fa (calculated)” value ([3]; Fa 0.900)?
Answer: Its value is 3.7234705 µM.

Question: What about the “Dose Reduction Index (DRI, from calculations)” value ([3]; Fa 0.950) of the same compound?
Answer: The value was 6.786.

Question: And the “Drug alone dose giving Fa (calculated)” value ([3]; Fa 0.950)?
Answer: The value was 10.58 µM.

Question: And the “Dose Reduction Index (DRI, from calculations)” value ([3]; Fa 0.990)?
Answer: The value was 8.200.

Question: What about the “Drug alone dose giving Fa (calculated)” value ([3]; Fa 0.990) of the same compound?
Answer: The value was 106.3 µM.

Question: How did the IC50 [1] turn out when `CN(C)C(=O)c1cc2cnc(Nc3ccc(N4CCNCC4)cn3)nc2n1C1CCCC1` [Compound B, 7-cyclopentyl-N,N-dimethyl-2-((5-(piperazin-1-yl)pyridin-2-yl)amino)-7H-pyrrolo[2,3-d]pyrimidine-6-carboxamide] was run?
Answer: Its IC50 is 4720 nM.

Question: What about the “Intact cells and cell morphology by micrograph” value [2] of the same compound?
Answer: Its value is “minimal effect in cell numbers and cell morphology”.

Question: What about the IC50 ([3]; NB-1643, 72 h) of the same compound?
Answer: The IC50 was 750 nM.

Question: What about the IC50 [3, 4] of the same compound?
Answer: Its IC50 is 788 nM.

Question: What about the “Drug alone dose giving Fa (calculated)” value ([3]; Fa 0.020) of the same compound?
Answer: Its value is 0.0013507 µM.

Question: And the “Drug alone dose giving Fa (calculated)” value ([3]; Fa 0.050)?
Answer: The value was 0.0063668 µM.

Question: And the “Drug alone dose giving Fa (calculated)” value ([3]; Fa 0.100)?
Answer: Its value is 0.021628 µM.

Question: And the “Drug alone dose giving Fa (calculated)” value ([3]; Fa 0.150)?
Answer: The value was 0.0461139 µM.

Question: What about the “Drug alone dose giving Fa (calculated)” value ([3]; Fa 0.200) of the same compound?
Answer: The value was 0.0815448 µM.

Question: And the “Drug alone dose giving Fa (calculated)” value ([3]; Fa 0.250)?
Answer: The value was 0.1305781 µM.

Question: What about the “Drug alone dose giving Fa (calculated)” value ([3]; Fa 0.300) of the same compound?
Answer: The value was 0.1970133 µM.

Question: What about the “Drug alone dose giving Fa (calculated)” value ([3]; Fa 0.350) of the same compound?
Answer: Its value is 0.2862422 µM.

Question: And the “Drug alone dose giving Fa (calculated)” value ([3]; Fa 0.400)?
Answer: The value was 0.4060079 µM.

Question: What about the “Drug alone dose giving Fa (calculated)” value ([3]; Fa 0.450) of the same compound?
Answer: Its value is 0.5676688 µM.

Question: What about the “Drug alone dose giving Fa (calculated)” value ([3]; Fa 0.500) of the same compound?
Answer: Its value is 0.78836 µM.

Question: And the “Drug alone dose giving Fa” value [3, 5]?
Answer: Its value is 0.8417031 µM.

Question: And the “Drug alone dose giving Fa (calculated)” value ([3]; Fa 0.550)?
Answer: Its value is 1.0948487 µM.

Question: What about the “Drug alone dose giving Fa (calculated)” value ([3]; Fa 0.600) of the same compound?
Answer: The value was 1.5307866 µM.

Question: What about the “Drug alone dose giving Fa (calculated)” value ([3]; Fa 0.650) of the same compound?
Answer: Its value is 2.1712783 µM.

Question: And the “Drug alone dose giving Fa (calculated)” value ([3]; Fa 0.700)?
Answer: Its value is 3.1546674 µM.

Question: What about the “Drug alone dose giving Fa” value [3, 6] of the same compound?
Answer: Its value is 4.7596923 µM.

Question: And the “Drug alone dose giving Fa (calculated)” value ([3]; Fa 0.750)?
Answer: The value was 4.7596923 µM.

Question: And the “Drug alone dose giving Fa (calculated)” value ([3]; Fa 0.800)?
Answer: The value was 7.6217203 µM.

Question: What about the “Drug alone dose giving Fa” value [3, 7] of the same compound?
Answer: The value was 10.56 µM.

Question: What about the “Drug alone dose giving Fa (calculated)” value ([3]; Fa 0.850) of the same compound?
Answer: The value was 13.48 µM.

Question: And the “Drug alone dose giving Fa” value [3, 8]?
Answer: Its value is 28.74 µM.

Question: What about the “Drug alone dose giving Fa” value [3, 9] of the same compound?
Answer: The value was 28.74 µM.

Question: And the “Drug alone dose giving Fa (calculated)” value ([3]; Fa 0.900)?
Answer: Its value is 28.74 µM.

Question: And the “Drug alone dose giving Fa (calculated)” value ([3]; Fa 0.950)?
Answer: The value was 97.62 µM.

Question: What about the “Drug alone dose giving Fa (calculated)” value ([3]; Fa 0.990) of the same compound?
Answer: Its value is 1455 µM.
